Earlier results, collected in patent publication US9320798B2, “Lipid delivery formulations” (Dicerna Pharmaceuticals, Inc., priority 2010, dated 2016).

Test system: TLR4
Details: Numata et al. PNAS USA 107: 320-325; Abate et al., J Lipid Res 51: 334-344

Structure (SMILES) | TLR4 activation
CCCCCCCCCCCCCCCC(=O)OC[C@H](COP(=O)([O-])OCC[N+](C)(C)C)OC(=O)CCCCCCCCCCCCCCC [DPPC, dipalmitoylphosphatidylcholine] | capable of disrupting TLR4 activation
CCCCCCCC/C=C\CCCCCCCC(=O)O[C@H](COC(=O)CCCCCCCCCCCCCCC)COP(=O)(O)OCC(O)CO (some centres unmarked) [POPG, palmitoyl-oleoyl-phosphatidylglycerol] | capable of disrupting TLR4 activation
